The source of these data is US8906952B2, “Indole derivative or pharmaceutically acceptable salt thereof, preparation method thereof, and pharmaceutical composition for preventing or treating metabolic diseases containing same as active ingredient” (Korea Research Institute of Bioscience and Biotechnology, priority 2011, dated 2014).

As usually defined, the inhibition is the share of the control response that was lost under treatment. In general, IC50 refers to the midpoint of a concentration-inhibition curve. A lower IC50 goes with higher potency.

Format in all cases: biochemical
The target in one assay is T1, human DGAT2 (Homo sapiens, UniProt Q96PD7).
T1 construct: made in house; host or cells: sf9 insect cells
T1 sequence (Q96PD7 1-388): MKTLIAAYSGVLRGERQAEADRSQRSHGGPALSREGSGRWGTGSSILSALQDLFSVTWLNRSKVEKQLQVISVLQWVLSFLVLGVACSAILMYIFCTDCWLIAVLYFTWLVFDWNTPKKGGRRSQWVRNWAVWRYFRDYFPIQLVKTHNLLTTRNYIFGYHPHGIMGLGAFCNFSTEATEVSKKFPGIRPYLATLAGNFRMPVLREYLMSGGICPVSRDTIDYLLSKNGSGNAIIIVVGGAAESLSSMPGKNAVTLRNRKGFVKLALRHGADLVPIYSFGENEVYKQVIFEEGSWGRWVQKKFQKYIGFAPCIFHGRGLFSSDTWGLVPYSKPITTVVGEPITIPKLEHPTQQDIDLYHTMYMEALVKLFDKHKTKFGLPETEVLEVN
The assay is described as follows: DGAT enzyme inhibition test, hDGAT2 enzyme from sf9 insect cells (DGAT2 selectivity). From the text:
(§1) To investigate inhibitory effect of the compounds of Examples 1-33 against DGAT enzyme activity, DGAT enzyme inhibition and DGAT2 selectivity were investigated using zymogen including:
1) hDGAT1 and hDGAT2 enzymes, derived from insect cell overexpressing human DGAT1 and DGAT2 (‘sf9’), respectively,
(§2) To be specific, for the purpose of measuring human-derived DGAT enzyme inhibitory activity, using the zymogen, including enzymes derived from insect cell overexpressing human DGAT1 and DGAT2 (‘sf9’), microsomal protein isolated from human duodenal adenocarcinoma (‘Hutu 80’), and microsomal protein isolated from rat, and according to Coleman et al., (Methods Enzymol., 98-103, 1992), and substrate including 1,2-diacylglycerol(Sigma, D0138) and [^14C]palmitoyl-CoA (Amersham, CFA583), the amount of radiation of [^14C]triacylglycerol produced after enzymatic reaction was measured.
(§3) To be more specific, to the reaction solution containing 175 mM Tris-HCl (pH 8.0), 20 μl bovine serum albumin (10 mg/ml), 100 mM magnesium chloride, 30 μM [^14C]palmitoyl CoA (0.02 μCi, Amersham) and 200 μM 1,2-dioleoylglycerol, reagent dissolved in dimethylsulfoxide (10.0 μl) was added. After introducing 100 to 200 μg isolated microsomal protein and allowing the same to react at 25° C. for 10 min, the reaction was stopped by adding 1.5 ml stop solution (2-propanol:heptane:water=80:20:2, v:v:v). To isolate the product of the reaction (i.e., [^14C]triacylglycerol), 1 ml heptane and 0.5 ml distilled water were added and then decocted. After taking 1 ml supernatant, 2 ml alkaline ethanol solution (ethanol:0.5 N sodium hydroxide:water=50:10:40, v:v:v) were added and then decocted. After taking 0.65 ml supernatant from the decoction, the amount of radiation was measured with liquid scintillation counter (LSC). The DGAT inhibitory activity was calculated with Mathematical Expression 1 below:
(§4) T denotes cpm of experimental group in which the enzymatic reaction solution was treated with the sample,
(§5) C denotes cpm of control group in which the enzymatic reaction solution was not treated with the sample, and
(§6) B denotes cpm of control group treated with the sample without zymogen.

In a further assay the target is T2, hDGAT-1 (HuTu 80) (Homo sapiens, UniProt O75907).
T2 construct: microsomal protein isolated from human duodenal adenocarcinoma (‘Hutu 80’); endogenous in cells; host or cells: HuTu 80 human duodenal adenocarcinoma cells (microsomes)
T2 sequence (O75907 1-488): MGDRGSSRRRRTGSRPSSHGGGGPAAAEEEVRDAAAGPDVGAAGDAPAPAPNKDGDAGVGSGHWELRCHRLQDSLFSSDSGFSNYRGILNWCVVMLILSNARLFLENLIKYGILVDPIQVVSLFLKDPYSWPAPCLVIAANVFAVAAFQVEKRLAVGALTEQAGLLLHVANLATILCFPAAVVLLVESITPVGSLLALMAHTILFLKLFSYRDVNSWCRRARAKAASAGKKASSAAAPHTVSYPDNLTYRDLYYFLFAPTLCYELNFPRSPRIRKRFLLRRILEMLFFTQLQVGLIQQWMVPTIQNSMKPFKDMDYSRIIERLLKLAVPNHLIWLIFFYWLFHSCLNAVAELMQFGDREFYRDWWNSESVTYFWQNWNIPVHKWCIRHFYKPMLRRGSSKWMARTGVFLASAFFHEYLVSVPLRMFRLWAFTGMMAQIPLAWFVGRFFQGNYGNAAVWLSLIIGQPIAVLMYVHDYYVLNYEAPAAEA
The assay is described as follows: DGAT enzyme inhibition test, microsomal protein from human duodenal adenocarcinoma (Hutu 80). Particulars: microsomal protein from HuTu 80.
Source text: as §1
2) DGAT enzyme derived from human duodenal adenocarcinoma (‘Hutu 80’), and
as §2, §3, §4, §5, §6

The next assay concerns the target T3, DGAT-1 (rat liver) (Rattus norvegicus, UniProt Q9ERM3).
T3 construct: microsomal protein isolated from rat; from tissue; host or cells: rat liver microsomes
T3 sequence (Q9ERM3 1-498): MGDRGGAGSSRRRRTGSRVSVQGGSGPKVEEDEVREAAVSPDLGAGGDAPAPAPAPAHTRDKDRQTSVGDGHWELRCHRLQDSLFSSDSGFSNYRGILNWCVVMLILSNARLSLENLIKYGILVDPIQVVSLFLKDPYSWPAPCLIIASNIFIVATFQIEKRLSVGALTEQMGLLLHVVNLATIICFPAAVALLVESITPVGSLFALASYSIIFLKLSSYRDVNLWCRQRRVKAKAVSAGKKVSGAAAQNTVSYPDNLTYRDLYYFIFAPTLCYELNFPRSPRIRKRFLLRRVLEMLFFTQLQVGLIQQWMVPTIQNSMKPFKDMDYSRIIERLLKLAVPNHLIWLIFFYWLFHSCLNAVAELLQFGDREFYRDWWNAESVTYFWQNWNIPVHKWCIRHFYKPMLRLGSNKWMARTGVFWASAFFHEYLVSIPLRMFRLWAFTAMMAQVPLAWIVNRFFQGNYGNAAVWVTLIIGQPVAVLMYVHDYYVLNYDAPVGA
The assay is described as follows: DGAT enzyme inhibition test, rat liver-derived DGAT enzyme. Particulars: rat liver microsomal protein.
Source text: as §1
3) rat liver-derived DGAT enzyme.
as §2, §3, §4, §5, §6
In general terms: Microsomes from liver hold many membrane-bound enzymes, among them those of drug oxidation.

Where [1] appears, read: 10 μM, enzyme from sf9 cells overexpressing hDGAT2, read-out: hDGAT-2 (sf9) inhibition rate(%)at 10 μM.
The mark [2] stands for this setting: concentration of 10 μM, read-out: hDGAT2 inhibition.

Structures are written as SMILES. Like-named read-outs stand apart in the source and are kept apart here.

On to `COc1cccc(C(=O)NN(C(=O)/C=C/c2cn(C(=O)OC(C)(C)C)c3ccccc23)C(C)C)c1` [Example 6, (E)-tert-butyl 3-(3-(1-isopropyl-2-(3-methoxybenzoyl)hydrazinyl)-3-oxoprop-1-enyl)-1H-indole-1-carboxylate], for which the inhibition at 10 µM on human DGAT2 (setting [1]) turned out to be 0.3%. The IC50 came to 5.2 µM at hDGAT-1 (HuTu 80) and 2.1 µM on DGAT-1 (rat liver).

For the compound `Cc1cccc(C(=O)NN(C(=O)/C=C/c2cn(C(=O)OC(C)(C)C)c3ccccc23)C(C)C)c1` [Example 47, (E)-tert-butyl 3-(3-(1-isopropyl-2-(3-methylbenzoyl)hydrazinyl)-3-oxoprop-1-enyl)-1H-indole-1-carboxylate], at human DGAT2 (setting [1]), the inhibition at 10 µM turned out to be 34.1%.

For `CC(C)N(NC(=O)c1ccccc1)C(=O)/C=C/c1cn(Cc2ccccc2)c2ccccc12` [Example 26, (E)-N′-(3-(1-benzyl-1H-indol-3-yl)acryloyl)-N′-isopropylbenzohydrazide], the inhibition at 10 µM at human DGAT2 (setting [1]) was 5%; on human DGAT2 (setting [2]), less than 11%. For the same compound, the 50% inhibitory concentration (IC50) came out at 2.9 µM at hDGAT-1 (HuTu 80) and 2.4 µM against DGAT-1 (rat liver).

Regarding `CC(C)N(NC(=O)c1cccc(F)c1)C(=O)/C=C/c1cn(C(=O)OC(C)(C)C)c2ccccc12` [Example 15, (E)-tert-butyl 3-(3-(2-(3-fluorobenzoyl)-1-isopropylhydrazinyl)-3-oxoprop-1-enyl)-1H-indole-1-carboxylate], the inhibition at 10 µM was less than 0% on human DGAT2 (setting [1]) and less than 11% on human DGAT2 (setting [2]). Moreover, the half-maximal inhibitory concentration (IC50) on hDGAT-1 (HuTu 80) stood at 1.1 µM; at DGAT-1 (rat liver), 0.4 µM.

In the case of `CC(C)N(NC(=O)c1cccnc1)C(=O)/C=C/c1cn(C(=O)OC(C)(C)C)c2ccccc12` [Example 3, (E)-tert-butyl 3-(3-(1-isopropyl-2-nicotinoylhydrazinyl)-3-oxoprop-1-enyl)-1H-indole-1-carboxylate], the inhibition at 10 µM on human DGAT2 (setting [1]) is less than 0%. Also, the IC50 is 6.5 µM against hDGAT-1 (HuTu 80) and 3.9 µM at DGAT-1 (rat liver).

With `CC(C)N(NC(=O)c1ccccc1)C(=O)/C=C/c1cn(C(=O)OC(C)(C)C)c2ccccc12` [Example 1, (E)-tert-butyl 3-(3-(2-benzoyl-1-isopropylhydrazinyl)-3-oxoprop-1-enyl)-1H-indole-1-carboxylate], the inhibition at 10 µM is 7.5% at human DGAT2 (setting [1]) and less than 11% on human DGAT2 (setting [2]). Also, the IC50 against hDGAT-1 (HuTu 80) is 1.4 µM; at DGAT-1 (rat liver), 1.1 µM.

As for `COC(=O)COc1cccc(C(=O)NN(C(=O)/C=C/c2cn(C(=O)OC(C)(C)C)c3ccccc23)C(C)C)c1` [Example 18, (E)-tert-butyl 3-(3-(1-isopropyl-2-(3-(2-methoxy-2-oxoethoxy)benzoyl)hydrazinyl)-3-oxoprop-1-enyl)-1H-indole-1-carboxylate], the inhibition at 10 µM on human DGAT2 (setting [1]) is less than 0%. The figures for the concentration for half-maximal inhibition (IC50) on hDGAT-1 (HuTu 80) and against DGAT-1 (rat liver) were 3.2 µM and 20.3 µM, respectively.

Take `CC(C)N(NC(=O)c1cccc(OCCN2CCOCC2)c1)C(=O)/C=C/c1cn(C(=O)OC(C)(C)C)c2ccccc12` [Example 8, (E)-tert-butyl 3-(3-(1-isopropyl-2-(3-(2-morpholinoethoxy)benzoyl)hydrazinyl)-3-oxoprop-1-enyl)-1H-indole-1-carboxylate]: at human DGAT2 (setting [1]), the inhibition at 10 µM was less than 0%. Further, the figures for the half-inhibitory concentration (IC50) against hDGAT-1 (HuTu 80) and on DGAT-1 (rat liver) were 9.3 µM and 2.5 µM, respectively.

Regarding `CC(C)N(NC(=O)c1ccccn1)C(=O)/C=C/c1cn(C(=O)OC(C)(C)C)c2ccccc12` [Example 2, (E)-tert-butyl 3-(3-(1-isopropyl-2-picolinoylhydrazinyl)-3-oxoprop-1-enyl)-1H-indole-1-carboxylate], the inhibition at 10 µM at human DGAT2 (setting [1]) was less than 0%. Further, the IC50 against hDGAT-1 (HuTu 80) came out at 11.2 µM; on DGAT-1 (rat liver) it was 7.6 µM.

`CC(C)(C)OC(=O)n1cc(/C=C/C(=O)NNS(=O)(=O)c2ccccc2)c2ccccc21` [Example 17, (E)-tert-butyl 3-(3-oxo-3-(2-(phenylsulfonyl)hydrazinyl)prop-1-enyl)-1H-indole-1-carboxylate]: the inhibition at 10 µM at human DGAT2 (setting [1]) is less than 0%. Moreover, the IC50 against hDGAT-1 (HuTu 80) was more than 100 µM; on DGAT-1 (rat liver), 83.6 µM.

For `CC(C)N(NC(=O)c1ccccc1)C(=O)CCc1c[nH]c2ccccc12` [Example 23, N′-(3-(1H-indol-3-yl)propanoyl)-N′-isopropylbenzohydrazide], on human DGAT2 (setting [1]), the inhibition at 10 µM was less than 0%. Moreover, the figures for the IC50 at hDGAT-1 (HuTu 80) and at DGAT-1 (rat liver) were 25.8 µM and 31.4 µM, respectively.

With `CC(C)CCn1cc(/C=C/C(=O)N(NC(=O)c2ccc(F)cc2)C(C)C)c2ccccc21` [Example 46, (E)-4-fluoro-N′-(3-(1-isopentyl-1H-indol-3-yl)acryloyl)-N′-isopropylbenzohydrazide], the inhibition at 10 µM on human DGAT2 (setting [1]) amounted to 64%.

In the case of `CC(C)N(NC(=O)c1ccc(F)cc1)C(=O)/C=C/c1cn(C(=O)OC(C)(C)C)c2ccccc12` [Example 44, (E)-tert-butyl 3-(3-(2-(4-fluorobenzoyl)-1-isopropylhydrazinyl)-3-oxoprop-1-enyl)-1H-indole-1-carboxylate], at human DGAT2 (setting [1]), the inhibition at 10 µM is 28.9%.

Regarding `CC(C)N(NC(=O)c1cccc(OCC(N)=O)c1)C(=O)/C=C/c1cn(C(=O)OC(C)(C)C)c2ccccc12` [Example 20, (E)-tert-butyl 3-(3-(2-(3-(2-amino-2-oxoethoxy)benzoyl)-1-isopropylhydrazinyl)-3-oxoprop-1-enyl)-1H-indole-1-carboxylate], the inhibition at 10 µM on human DGAT2 (setting [1]) was less than 0%. Also, the IC50 at hDGAT-1 (HuTu 80) is 73.3 µM; against DGAT-1 (rat liver), more than 100 µM.

Turning to `Cc1ccc(C(=O)NN(C(=O)/C=C/c2cn(C(=O)OC(C)(C)C)c3ccccc23)C(C)C)cc1` [Example 48, (E)-tert-butyl 3-(3-(1-isopropyl-2-(4-methylbenzoyl)hydrazinyl)-3-oxoprop-1-enyl)-1H-indole-1-carboxylate], the inhibition at 10 µM on human DGAT2 (setting [1]) was 22.1%.

With `CC(C)=CCn1cc(/C=C/C(=O)N(NC(=O)c2ccc(F)cc2)C(C)C)c2ccccc21` [Example 49, (E)-4-fluoro-N′-isopropyl-N′-(3-(1-(3-methylbut-2-enyl)-1H-indol-3-yl)acryloyl)benzohydrazide], on human DGAT2 (setting [1]), the inhibition at 10 µM came out at 28%.
